# Assay results: US20090023186A1, “USE OF VALPROIC ACID FOR ENHANCING PRODUCTION OF RECOMBINANT PROTEINS IN MAMMALIAN CELLS” (EXCELLGENE SA, priority 2007, published 2009)
# Key:
# HEK293E cells = assay: Multiple VPA additions, IgG batch titer by ELISA (Example 3); format: cell-based, Human; conditions: day 10 after transfection
# Method: 10 million suspension-adapted HEK293E cells were resuspended in 0.5 ml of Ex-Cell 293 HEK 293 serum-free medium with 4 mmol/l L-glutamine (Cat. No. 14571C-[…]; Lot No. 6A0093; SAFC Biosciences, Lenexa, Kans., USA, “Ex-Cell” medium; note: “Ex-Cell” medium-as used herein-refers to a medium comprising 4 mmol/l L-glutamine) in a 50-ml filter tube each (TPP AG, Trasadingen, Switzerland; Cat. No. 87050, Lot 20050174). In a separate set, 10 million suspension-adapted CHO DG44 cells were resuspended in 0.5 ml of ProCHO5 serum-free medium with 4 mmol/[…] hypoxanthine and 0.194 g/l thymidine (BioWhittaker (Lonza), Belgium; Cat. No. BE12-[…]; Lot No. 7 MB0040; “ProCHO5” medium; note: “ProCHO5” medium-as used herein-refers to a medium comprising 4 mmol/[…] hypoxanthine and 0.194 g/l thymidine) in a 50-ml filter tube each (TPP AG, Trasadingen, Switzerland; Cat. No. 87050, Lot 20050174). Then 12.5 μg plasmid DNA at a concentration of 1 μg/μl was added in each tube with the following composition 50% (6.25 μg) p-LC (SEQ ID NO: 1) 50% (6.25 μg) p-HC (SEQ ID NO: 3). Plasmid p-LC comprises the genetic information for the production of the light chain of an IgG antibody, plasmid p-HC comprises the genetic information for the production of the heavy chain of an IgG antibody. The particular vector constructs used in the present invention can also be obtained from the inventors. The inventors can be contacted via e-mail at […]. […] In short, Goat anti-human kappa light chain IgG (Biosource) was used for coating the ELISA-plates, and with AP-conjugated goat anti-human gamma chain IgG (Biosource) the synthesized IgG1 was detected. […] Absorption was measured at 405 nm against 490 nm using a microplate reader (SPECTRAmaxTM340; Molecular Devices, Palo Alto, Calif., USA).
# CHO cells = assay: Stable cell lines, IgG batch titer by ELISA (Example 5); format: cell-based, Chinese Hamster; conditions: 0.5 mmol/l final VPA; stable mass culture; 5 days after VPA addition
smiles,measurement,setting,value
"CCCC(CCC)C(=O)O [VPA, valproic acid]",Batch titer,HEK293E cells; 4 mmol/l VPA at day 0,193 mg/L
same,"batch titers, direct addition versus slowly increasing concentration",HEK293E cells,statistically not different
same,Batch titer,"HEK293E cells; escalating dosage, 1 to 4 mmol/l in 1 mmol/l increments every other day",182 mg/L
same,Batch titer CHO,CHO cells,35.5 ± 2.5 mg/L
